In brackets after ≈: the same amount, converted by molar mass. A value given as a limit tells only on which side of the number the result lay.

The test system of one assay is Mannheimia haemolytica MH 6357 (M7/2, reference strain, cattle infection strain). Description: MIC, broth-microdilution (CLSI VET01-A4), strain MH 6357. The format is cell-based. The conditions noted are these: Mannheimia haemolytica strain MH 6357, broth-microdilution; unit assumed. As to the method: (§1) For example, representative compounds were tested against ***, Mannheimia haemolytica and Pasteurella multocida, using the conventional broth-dilution assay.
(§2) The Minimum inhibitory concentrations (MIC) of compounds according to the invention for a number of veterinary bacterial pathogens were determined by the broth-microdilution method according to CLSI document VET01-A4.
(§3) Microdilution trays containing a doubling dilution series of the test compound were used for the tests. The MIC results were interpreted according to the CLSI documents VET01-S3. The lowest concentration of compound at which no visible growth (i.e. no turbidity) detected by the unaided eye was recorded as the MIC.
Compound `O=C(N[C@@H](CO)C(=O)NO)c1ccc(C#Cc2ccc(CNC3CC3)cc2)cc1` [Compound 71] had an MIC MH 6357 of 1.6 µg/mL (≈ 4.07 µM).
Same read-out and setting: the value for `CC(C)[C@H](NC(=O)c1ccc(C#Cc2cccc(CNCc3ccccc3)c2)cc1)C(=O)NO` [Compound 40] was 6.3 µg/mL (≈ 13.8 µM).
Same read-out and setting: next, `O=C(N[C@@H](CO)C(=O)NO)c1ccc(C#Cc2ccc(CNCc3ccc(C(F)(F)F)cc3)cc2)cc1` [Compound 89]: 6.3 µg/mL (≈ 12.3 µM).
In turn, `CC[C@H](C)[C@H](NC(=O)c1ccc(C#Cc2ccc(CN3CCc4ccccc4C3)cc2)cc1)C(=O)NO` [Compound 124] showed an MIC MH 6357 of 6.3 µg/mL (≈ 12.7 µM).

The test system of another assay is Mannheimia haemolytica MH 6374 (ATCC 33396, reference strain). The assay can be described thus: MIC, broth-microdilution (CLSI VET01-A4), strain MH 6374. It counts as cell-based. The conditions noted are these: Mannheimia haemolytica strain MH 6374, broth-microdilution; unit assumed. As to the method:
as §1, §2, §3
Regarding `O=C(N[C@@H](CO)C(=O)NO)c1ccc(C#Cc2ccc(CNC3CC3)cc2)cc1` [Compound 71], the MIC MH 6374 came to 0.8 µg/mL (≈ 2.03 µM).
Still for that read-out and setting: next, `CC(C)[C@H](NC(=O)c1ccc(C#Cc2cccc(CNCc3ccccc3)c2)cc1)C(=O)NO` [Compound 40]: 3.1 µg/mL (≈ 6.8 µM).
Compound `O=C(N[C@@H](CO)C(=O)NO)c1ccc(C#Cc2ccc(CNCc3ccc(C(F)(F)F)cc3)cc2)cc1` [Compound 89] showed an MIC MH 6374 of 3.1 µg/mL (≈ 6.06 µM).
Take `CC[C@H](C)[C@H](NC(=O)c1ccc(C#Cc2ccc(CN3CCc4ccccc4C3)cc2)cc1)C(=O)NO` [Compound 124]: the MIC MH 6374 was 12.5 µg/mL (≈ 25.2 µM).

Another assay deals with Mannheimia haemolytica MH 10720 (154, BRD field isolate). The assay can be described thus: MIC, broth-microdilution (CLSI VET01-A4), strain MH 10720. It counts as cell-based. The conditions noted are these: Mannheimia haemolytica strain MH 10720, broth-microdilution; unit assumed. On the procedure:
as §1, §2, §3
Compound `O=C(N[C@@H](CO)C(=O)NO)c1ccc(C#Cc2ccc(CNC3CC3)cc2)cc1` [Compound 71] had an MIC MH 10720 of 0.4 µg/mL (≈ 1.02 µM).
Same read-out and setting: the value for `CC(C)[C@H](NC(=O)c1ccc(C#Cc2cccc(CNCc3ccccc3)c2)cc1)C(=O)NO` [Compound 40] was 6.3 µg/mL (≈ 13.8 µM).
For the compound `O=C(N[C@@H](CO)C(=O)NO)c1ccc(C#Cc2ccc(CNCc3ccc(C(F)(F)F)cc3)cc2)cc1` [Compound 89], the MIC MH 10720 is 1.6 µg/mL (≈ 3.13 µM).
With `CC[C@H](C)[C@H](NC(=O)c1ccc(C#Cc2ccc(CN3CCc4ccccc4C3)cc2)cc1)C(=O)NO` [Compound 124], the MIC MH 10720 was determined as 3.1 µg/mL (≈ 6.25 µM).

For the next assay, the system named is Mannheimia haemolytica MH 12587 (1071, BRD field isolate, macrolide-resistance: erm+, E+). Description: MIC, broth-microdilution (CLSI VET01-A4), strain MH 12587. It counts as cell-based. Particulars: Mannheimia haemolytica strain MH 12587, broth-microdilution; unit assumed. On the procedure:
as §1, §2, §3
`O=C(N[C@@H](CO)C(=O)NO)c1ccc(C#Cc2ccc(CNC3CC3)cc2)cc1` [Compound 71] gave an MIC MH 12587 of 1.6 µg/mL (≈ 4.07 µM).
The same measure, in the same setting: next, `CC(C)[C@H](NC(=O)c1ccc(C#Cc2cccc(CNCc3ccccc3)c2)cc1)C(=O)NO` [Compound 40]: 12.5 µg/mL (≈ 27.4 µM); `O=C(N[C@@H](CO)C(=O)NO)c1ccc(C#Cc2ccc(CNCc3ccc(C(F)(F)F)cc3)cc2)cc1` [Compound 89]: 12.5 µg/mL (≈ 24.4 µM).
Still for that read-out and setting: next, `CC[C@H](C)[C@H](NC(=O)c1ccc(C#Cc2ccc(CN3CCc4ccccc4C3)cc2)cc1)C(=O)NO` [Compound 124]: 25 µg/mL (≈ 50.4 µM).

Another assay has as its system Mannheimia haemolytica MH 13065 (XB0446-6003.9, BRD field isolate). The assay can be described thus: MIC, broth-microdilution (CLSI VET01-A4), strain MH 13065. The format is cell-based. The conditions noted are these: Mannheimia haemolytica strain MH 13065, broth-microdilution; unit assumed. On the procedure:
as §1, §2, §3
In turn, `O=C(N[C@@H](CO)C(=O)NO)c1ccc(C#Cc2ccc(CNC3CC3)cc2)cc1` [Compound 71] displayed an MIC MH 13065 of 0.8 µg/mL (≈ 2.03 µM).
`CC(C)[C@H](NC(=O)c1ccc(C#Cc2cccc(CNCc3ccccc3)c2)cc1)C(=O)NO` [Compound 40] registered an MIC MH 13065 of 6.3 µg/mL (≈ 13.8 µM).
On the same count and under the same terms, next, `O=C(N[C@@H](CO)C(=O)NO)c1ccc(C#Cc2ccc(CNCc3ccc(C(F)(F)F)cc3)cc2)cc1` [Compound 89]: 6.3 µg/mL (≈ 12.3 µM); `CC[C@H](C)[C@H](NC(=O)c1ccc(C#Cc2ccc(CN3CCc4ccccc4C3)cc2)cc1)C(=O)NO` [Compound 124]: 12.5 µg/mL (≈ 25.2 µM).

In another assay the test system is Mannheimia haemolytica MH 13093 (XB0472-6014.1, BRD field isolate). The assay can be described thus: MIC, broth-microdilution (CLSI VET01-A4), strain MH 13093. It counts as cell-based. Particulars: Mannheimia haemolytica strain MH 13093, broth-microdilution; unit assumed. As to the method: as §1, §2, §3
`O=C(N[C@@H](CO)C(=O)NO)c1ccc(C#Cc2ccc(CNC3CC3)cc2)cc1` [Compound 71] gave an MIC MH 13093 of 3.1 µg/mL (≈ 7.88 µM).
`CC(C)[C@H](NC(=O)c1ccc(C#Cc2cccc(CNCc3ccccc3)c2)cc1)C(=O)NO` [Compound 40] showed an MIC MH 13093 of 6.3 µg/mL (≈ 13.8 µM).
As to `O=C(N[C@@H](CO)C(=O)NO)c1ccc(C#Cc2ccc(CNCc3ccc(C(F)(F)F)cc3)cc2)cc1` [Compound 89], the MIC MH 13093 is 6.3 µg/mL (≈ 12.3 µM).
Still for that read-out and setting: the value for `CC[C@H](C)[C@H](NC(=O)c1ccc(C#Cc2ccc(CN3CCc4ccccc4C3)cc2)cc1)C(=O)NO` [Compound 124] was 12.5 µg/mL (≈ 25.2 µM).

In the next assay the test system is Pasteurella multocida PM 6267 (P 2225 (L386), reference strain, mouse infection strain). Description: MIC, broth-microdilution (CLSI VET01-A4), strain PM 6267. The format is cell-based. Particulars: Pasteurella multocida strain PM 6267, broth-microdilution; unit assumed. As to the method:
as §1, §2, §3
Compound `O=C(N[C@@H](CO)C(=O)NO)c1ccc(C#Cc2ccc(CNC3CC3)cc2)cc1` [Compound 71] gave an MIC PM 6267 of 0.2 µg/mL (≈ 0.508 µM).
In turn, `CC(C)[C@H](NC(=O)c1ccc(C#Cc2cccc(CNCc3ccccc3)c2)cc1)C(=O)NO` [Compound 40] displayed an MIC PM 6267 of 3.1 µg/mL (≈ 6.8 µM).
Same read-out and setting: next, `O=C(N[C@@H](CO)C(=O)NO)c1ccc(C#Cc2ccc(CNCc3ccc(C(F)(F)F)cc3)cc2)cc1` [Compound 89]: 0.4 µg/mL (≈ 0.782 µM); `CC[C@H](C)[C@H](NC(=O)c1ccc(C#Cc2ccc(CN3CCc4ccccc4C3)cc2)cc1)C(=O)NO` [Compound 124]: 3.1 µg/mL (≈ 6.25 µM).

The next assay concerns Pasteurella multocida PM 10775 (080130003051, BRD field isolate). The assay can be described thus: MIC, broth-microdilution (CLSI VET01-A4), strain PM 10775. It counts as cell-based. Particulars: Pasteurella multocida strain PM 10775, broth-microdilution; unit assumed. On the procedure: as §1, §2, §3
With `O=C(N[C@@H](CO)C(=O)NO)c1ccc(C#Cc2ccc(CNC3CC3)cc2)cc1` [Compound 71], the MIC PM 10775 is ≤ 0.1 µg/mL.
The same measure, in the same setting: the value for `CC(C)[C@H](NC(=O)c1ccc(C#Cc2cccc(CNCc3ccccc3)c2)cc1)C(=O)NO` [Compound 40] was 0.8 µg/mL (≈ 1.76 µM).
Still for that read-out and setting: the value for `O=C(N[C@@H](CO)C(=O)NO)c1ccc(C#Cc2ccc(CNCc3ccc(C(F)(F)F)cc3)cc2)cc1` [Compound 89] was ≤ 0.1 µg/mL.
Still for that read-out and setting: the value for `CC[C@H](C)[C@H](NC(=O)c1ccc(C#Cc2ccc(CN3CCc4ccccc4C3)cc2)cc1)C(=O)NO` [Compound 124] was 0.8 µg/mL (≈ 1.61 µM).

A further assay relates to Pasteurella multocida PM 12080 (IV102277-0093, BRD field isolate). Description: MIC, broth-microdilution (CLSI VET01-A4), strain PM 12080. It counts as cell-based. Particulars: Pasteurella multocida strain PM 12080, broth-microdilution; unit assumed. On the procedure: as §1, §2, §3
For the compound `O=C(N[C@@H](CO)C(=O)NO)c1ccc(C#Cc2ccc(CNC3CC3)cc2)cc1` [Compound 71], the MIC PM 12080 worked out at 0.4 µg/mL (≈ 1.02 µM).
Still for that read-out and setting: next, `CC(C)[C@H](NC(=O)c1ccc(C#Cc2cccc(CNCc3ccccc3)c2)cc1)C(=O)NO` [Compound 40]: 6.3 µg/mL (≈ 13.8 µM).
Same read-out and setting: next, `O=C(N[C@@H](CO)C(=O)NO)c1ccc(C#Cc2ccc(CNCc3ccc(C(F)(F)F)cc3)cc2)cc1` [Compound 89]: 1.6 µg/mL (≈ 3.13 µM); `CC[C@H](C)[C@H](NC(=O)c1ccc(C#Cc2ccc(CN3CCc4ccccc4C3)cc2)cc1)C(=O)NO` [Compound 124]: 3.1 µg/mL (≈ 6.25 µM).

Source of the values: patent publication US11034650B2, “Compounds useful for treating a Mannheimia haemolytica or Histophilus somni infection” (Intervet Inc., priority 2016, dated 2021).
